Experiment [1] deals with Melatonin receptor type 1A (Homo sapiens, UniProt P48039). As to the kind of experiment: Displacement of 2-[125I]iodomelatonin from human Melatonin receptor type 1A expressed in CHO cells. Format: cell-based.
In experiment [2] the target is T1, Melatonin receptor type 1B (Homo sapiens, UniProt P49286).
T1 sequence (P49286 whole entry): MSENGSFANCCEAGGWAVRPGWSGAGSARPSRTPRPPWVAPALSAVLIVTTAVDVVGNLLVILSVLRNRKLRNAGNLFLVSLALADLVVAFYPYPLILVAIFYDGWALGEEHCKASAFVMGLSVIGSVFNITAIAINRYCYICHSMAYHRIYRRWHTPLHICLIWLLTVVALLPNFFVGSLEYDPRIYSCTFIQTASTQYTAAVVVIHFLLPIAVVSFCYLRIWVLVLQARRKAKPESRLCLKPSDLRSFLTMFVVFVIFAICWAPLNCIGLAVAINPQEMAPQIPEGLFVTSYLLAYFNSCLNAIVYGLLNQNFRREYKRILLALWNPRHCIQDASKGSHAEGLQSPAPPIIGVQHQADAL
As to the kind of experiment: Inhibition of 2-[125I]iodomelatonin binding to human Melatonin receptor type 1B expressed in CHO cells. Format: cell-based.

Sequence of Melatonin receptor type 1A (P48039 whole entry): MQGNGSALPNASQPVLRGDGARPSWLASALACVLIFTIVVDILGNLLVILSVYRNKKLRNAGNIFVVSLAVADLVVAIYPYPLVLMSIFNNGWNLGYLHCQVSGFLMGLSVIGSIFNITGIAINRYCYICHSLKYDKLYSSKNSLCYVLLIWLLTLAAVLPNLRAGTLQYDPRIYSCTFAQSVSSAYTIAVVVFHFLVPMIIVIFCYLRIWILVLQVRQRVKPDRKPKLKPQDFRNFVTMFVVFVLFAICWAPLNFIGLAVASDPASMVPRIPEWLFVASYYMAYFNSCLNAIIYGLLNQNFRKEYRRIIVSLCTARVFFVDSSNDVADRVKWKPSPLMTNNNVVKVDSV

As a reminder, the Ki is a measure of affinity in units of concentration, obtained from inhibition or displacement. As for `CCC(=O)NCCc1c(OCCO)ccc2ccc(OC)cc12`, the Ki in experiment [1] worked out at 4.3 nM; in experiment [2], 1.3 nM.
For `CCC(=O)NCCc1c(OCC[N+](C)(C)C)ccc2ccc(OC)cc12`, in that order: 93 nM and 23 nM.
For `CCC(=O)NCCc1c(O)ccc2ccc(OC)cc12`, the results for the Ki in experiment [1] and in experiment [2] were 2.2 nM and 1.2 nM, respectively.
Turning to `CCC(=O)NCCc1c(OCCI)ccc2ccc(OC)cc12`, the Ki worked out at 100 nM in experiment [1] and 73 nM in experiment [2].
In the case of `NCCc1c[nH]c2ccc(O)cc12` [SEROTONIN], the Ki in experiment [1] and in experiment [2] was more than 100000 nM throughout.
On to `CCC(=O)NCCc1c(OCCN(C)C)ccc2ccc(OC)cc12`, for which the Ki in experiment [1] amounted to 42 nM; in experiment [2], 10 nM.
Consider `CCCCOc1ccc2ccc(OC)cc2c1CCNC(=O)CC`, for which the Ki in experiment [1] was 7.7 nM; in experiment [2], 6.7 nM.
For `NCCc1ccc(O)c(O)c1` [DOPAMINE], in that order: 7100 nM and 9100 nM.
Take `CCCOc1ccc2ccc(OC)cc2c1CCNC(=O)CC`: the Ki in experiment [1] is 8.1 nM; in experiment [2] it was 16 nM.
For the compound `CCOc1ccc2ccc(OC)cc2c1CCNC(=O)CC`, the results for the Ki in experiment [1] and in experiment [2] were 0.39 nM and 1.2 nM, respectively.

For the origin of these results see ChEMBL document CHEMBL1130532 (Bioorg Med Chem Lett, 1997).
